# Several values for one entry are separate records, joined by “and”; a condition that tells them apart may be missing. Identical values can stand only once. Like-named read-outs stand apart in the source and are kept apart here.
# Tests used:
# [1] = system: smooth muscle cell proliferation; assay: Primate balloon catheter injury of aorta and femoral arteries, smooth muscle cell proliferation; format: in vivo, cynomologous macaques; details: aorta and left and right femoral arteries; i.m. slow release system, total 50 µg/kg/day; one treated animal versus one control; five weeks
# Method: In order to obtain a primate coronary angioplasty model which would be suited for evaluation of Angiopeptin, a feasibility study was performed on primates which were made available from the colony at Bowman-Gray Medical School, Winston-Salem, North Carolina. These animals were culled from the colony due to failure of the primates to satisfactorily elevate blood lipids when administered a high cholesterol diet. Young male cynomologous macaques weighing approximately 3.5 kg were used after an equilibration period of more than a week in a primate facility.
# The animals were sedated with Ketamine and maintained with 1% halothane in oxygen. The aorta and femoral arteries were injured by a balloon catheter (USCI, Band). After five weeks the primates were anesthetized and sacrificed. The aorta and femoral arteries were removed and fixed in formaldehyde for morphometric analysis. […]
# The maximal intimal/media ratio (distance from lumen to internal elastic lamina/distance from internal elastic lamina to external elastic lamina) was determined in each vessel using a digitizing system attached to a light microscope. The determinations were done on three different cross sections of the vessel and each section was measured three times and each three measurements were averaged.
# [2] = system: myointimal cell proliferation in the aortas of rabbits; assay: Rabbit aorta 72 hours after balloon angioplasty: wet weight, protein, DNA/protein, 3-H thymidine incorporation; format: in vivo, New Zealand White Rabbits; details: for Levels of Proteins (total protein content of the injured aortas): Fig. 2; for DNA/Protein Ratio: Fig. 3; for Thymidine (3-H) Incorporation (rates of cell proliferation): Fig. 4
# Method: New Zealand White Rabbits were anesthetised with Rompun (Xylazine) and Ketalar (Ketamine) and a cannula (3F Fogarty) was inserted from the femoral artery. The balloon was inflated at a constant pressure and the aorta was deendothelialised by angioplasty. The process was repeated three times and the wound site was closed. The animals were sacrificed 72 hours after balloon angioplasty and after removing the adventitia the aorta was cut into fine rings. These rings were incubated in the presence of 3-H thymidine and the radioactivity was determined after processing the tissue. Simultaneous measurements of DNA and protein contents were also made in these tissues.
# Eight injections of Angiopeptin were made: on the morning and evening of the day prior to ballooning; two on the day of the procedure; and two on each of the following two days. The total daily dose was 2, 20, or 200 µg/Kg body weight.
# Myointimal Hyperplasia = assay: Myointimal hyperplasia in rabbits after balloon angioplasty of iliac artery and aorta (morphometry); format: in vivo, white New Zealand rabbits; details: for percentage of inhibition of myointimal hyperplasia: 20 µg/kg/d; for % Intimal hyperplasia, Mean: group mean; for % Intimal hyperplasia: individual samples
# Method: Female and Male, white New Zealand rabbits (2.8-3.0 kg) were divided into two groups (A and B). Group A (vehicle control) received subcutaneous injections of physiological saline (0.2 ml) twice daily. […] The animals were treated the day before angioplasty, and until sacrifice about 3 weeks later. The angioplasty was done under general anesthesia with Ketamine and Xylazine. Each animal's left iliac artery and aorta were denuded with an angioplasty catheter (Fogarty). The angioplasty catheter was inserted into the left femoral artery and passed through the vessel to the thoracic aorta. The catheter was then reciprocated three times. The animals were all sacrificed from days 22-24 after angioplasty. The aorta and iliac arteries were fixed in situ via perfusion with formaldehyde under constant perfusion pressure.
# Intimal hyperplasia was determined on elastin-stained (Van Giesen) horizontally-cut sections. The sections were obtained from (i) the aorta at the level of the renal artery, (ii) the common iliac artery at the level of bifurcation, and (iii) the external iliac artery just above the inguinal ligament. The area of intimal hyperplasia and total vessel area were determined by morphometry. The percentage of intimal hyperplasia was expressed as follows: [formula] Single determinations were made on three segments of each aorta and the two iliac arteries of each animal. The percentage of intimal hyperplasia was determined as the mean of the two closest measurements of each vessel.
# [3] = system: smooth muscle pig left coronary artery explants; assay: H3-thymidine incorporation in denuded pig left coronary artery explants; format: cell-based, Domestic pig; details: 24 hr, individual segments
# Method: Domestic pig hearts were obtained from a slaughter house immediately after the animals were sacrificed. The hearts were harvested and placed in ice-cold Kreb's Ringer buffer and transported to the laboratory. The left coronary artery (LAD) was dissected in aseptic conditions and divided into pieces of 5 mm. The segments were denuded from the endothelium by gently introducing a metallic rod in the lumen. The tissues were placed in sterile multiwell culture dishes in 1 ml of culture media (DMEM with antibiotics) and without fetal calf serum. H³-thymidine (2.5 uCi/ml) and increasing concentrations of angiopeptin (10-1000 ng/ml) were added to the medium. Segments which were incubated with 3 different concentrations of forskolin were used as a positive control in each experiment. The incubation period was 24 hr at 37°C and 5% CO₂. The tissues were washed with phosphate saline buffer and placed in a solution of cold thymidine for one hour and then frozen in liquid nitrogen, ground and lysed with a hypotonic solution. The lysed tissues were further incubated with proteinase K overnight at 50°C. The radioactivity, content of protein and DNA were measured.
# growth hormone release = details: in vivo, from Heiman et al., Coy et al., Tolis et al., cited from earlier work
# [4] = system: myointimal proliferation of the carotid artery; assay: Air-drying injury of the rat carotid artery, myointimal proliferation (maximal intimal/media ratio, morphometry); format: in vivo, Sprague-Dawley rats
# Method: Male Sprague-Dawley rats, weighing […], obtained from Charles River were kept under controlled lighting conditions and fed rat chow and water ad libitum. Under sodium pentobarbital anesthesia the intima of the right carotid artery was subjected to an air-drying injury described by Fishman et al, Lab Invest., 32, 339 (1975). This procedure causes intimal hyperplasia that largely consists of proliferating intimal smooth muscle cells. In this model approximately 4 cm of the vessel is isolated and drained of blood. Air (20 ml/min) is blown through a 30 gauge needle for 5 min whereafter blood flow is reestablished. The contralateral carotid artery was also exposed but not air-dried. The rats were sacrificed 15 days later.
# The experiment consisted of a control group and ten treatment groups. The somatostatin analogs used were hepta- or octapeptides, namely BIM 23014 (Angiopeptin), BIM 23012, BIM 23027, BIM 23030 and BIM 23034. […] The animals were pretreated two days prior to the procedure and for a further five days following the endothelial injury. Two additional groups of animals were added in order to study whether Angiopeptin (20 µg/kg/day and 50 µg/kg/day) administered 30 min prior to the endothelial injury and for a further five days would protect against the myointimal proliferation.
# The animals were sacrificed on day 15 following the injury by exsanguination. The vascular system was flushed with normal saline and perfusion-fixed at 80 mmHg with 10% formalin. The carotid arteries were subsequently fixed, embedded and sectioned for light microscopy and morphometric analysis. The maximal intimal/media ratio is the distance from the lumen to the internal elastic lamina and the distance from the internal elastic lamina to the external elastic lamina. The distances were determined in each vessel using a digitizing system attached to a light microscope. The determinations were performed on three different cross sections of the vessel and each section was measured three times. The mean was calculated for each vessel. Differences between the groups were evaluated using Student's unpaired t-test.
# [5] = common iliac artery, female rabbits
# [6] = common iliac artery, male rabbits
# [7] = external iliac artery, female rabbits
# [8] = external iliac artery, male rabbits
structure (smiles),measurement,setting,value
"CC(C)[C@@H]1NC(=O)[C@H](CCCCN)NC(=O)[C@@H](Cc2c[nH]c3ccccc23)NC(=O)[C@H](Cc2ccc(O)cc2)NC(=O)[C@@H](NC(=O)[C@H](N)Cc2ccc3ccccc3c2)CSSC[C@@H](C(=O)N[C@H](C(N)=O)[C@@H](C)O)NC1=O [Angiopeptin, D-Nal-Cys-Tyr-D-Trp-Lys-Val-Cys-Thr-NH₂]",inhibition of smooth muscle cell proliferation,[1],nearly complete inhibition
same,Levels of Proteins (total protein content of the injured aortas),[2]; 2 µg/kg body wt.,lowered the total protein content
same,DNA/Protein Ratio,[2]; 20 µg/kg body weight,significantly lowered
same,Thymidine (3-H) Incorporation (rates of cell proliferation),[2]; 20 µg/kg body wt.,significantly lower
same,DNA/Protein Ratio,[2]; 200 µg/kg body wt.,reflected the inhibitory influence
same,Thymidine (3-H) Incorporation (rates of cell proliferation),[2]; 200 µg/kg,still inhibited the myointimal proliferation
same,Wet Weight of aortas,"[2]; 2, 20 and 200 µg/kg body wt. daily, 72 hours after balloon angioplasty, Fig. 1",does not seem to influence
same,Levels of Proteins (total protein content of the injured aortas),[2]; higher doses (20 and 200 µg/kg body wt.),did not affect the levels of total proteins
same,percentage of inhibition of myointimal hyperplasia,"Myointimal Hyperplasia; aorta, female rabbits",~43%
same,"% Intimal hyperplasia, Mean","Myointimal Hyperplasia; aorta, female rabbits",12.5%
same,% Intimal hyperplasia,"Myointimal Hyperplasia; aorta, female rabbits",13.0% and 10.7% and 12.8% and 19.5% and 6.4%
same,percentage of inhibition of myointimal hyperplasia,"Myointimal Hyperplasia; aorta, male rabbits",~32%
same,"% Intimal hyperplasia, Mean","Myointimal Hyperplasia; aorta, male rabbits",14.8%
same,% Intimal hyperplasia,"Myointimal Hyperplasia; aorta, male rabbits",15.9% and 17.0% and 12.4% and 13.3% and 13.8% and 15.7% (2×)
same,percentage of inhibition of myointimal hyperplasia,Myointimal Hyperplasia; [5],~33%
same,"% Intimal hyperplasia, Mean",Myointimal Hyperplasia; [5],13.1%
same,% Intimal hyperplasia,Myointimal Hyperplasia; [5],6.5% and 9.3% and 9.5% and 19.7% and 20.5% and 15.3% and 16.6% and 7.7%
same,percentage of inhibition of myointimal hyperplasia,Myointimal Hyperplasia; [6],~39%
same,"% Intimal hyperplasia, Mean",Myointimal Hyperplasia; [6],14.1%
same,% Intimal hyperplasia,Myointimal Hyperplasia; [6],14.9% and 16.0% and 6.4% and 17.4% and 13.9% and 15.8% and 14.0%
same,percentage of inhibition of myointimal hyperplasia,Myointimal Hyperplasia; [7],about 41%
same,"% Intimal hyperplasia, Mean",Myointimal Hyperplasia; [7],20.7%
same,% Intimal hyperplasia,Myointimal Hyperplasia; [7],17.8% and 26.4% and 15.2% and 21.3% and 33.6% and 24.1% and 20.6% and 6.6%
same,percentage of inhibition of myointimal hyperplasia,Myointimal Hyperplasia; [8],~20%
same,"% Intimal hyperplasia, Mean",Myointimal Hyperplasia; [8],24.4%
same,% Intimal hyperplasia,Myointimal Hyperplasia; [8],30.5% and 19.2% and 25.7% and 26.5% and 22.3% and 37.9% and 22.2%
same,CPM,[3]; Angiopeptin 10 ng/ml,35113.84 CPM and 46392.32 CPM and 27312.80 CPM and 55980.00 CPM
same,CPM,[3]; Angiopeptin 20 ng/ml,26279.81 CPM and 39027.27 CPM and 39706.01 CPM and 21562.08 CPM
same,CPM,[3]; Angiopeptin 50 ng/ml,24269.18 CPM and 40768.09 CPM and 18983.78 CPM and 18942.16 CPM
same,CPM,[3]; Angiopeptin 100 ng/ml,20794.85 CPM and 32402.31 CPM and 22033.48 CPM and 26227.64 CPM
same,CPM,[3]; Angiopeptin […] (so in the source),18325.51 CPM and 27260.98 CPM and 30226.99 CPM and 32344.58 CPM
same,inhibition of growth hormone release,growth hormone release,less active
same,inhibition of growth hormone release,growth hormone release; listed as BIM 23014,potent inhibitors of growth hormone release
same,myointimal proliferation of the carotid artery following endothelial injury by air drying,"[4]; 20 µg/kg/day s.c. in two divided doses, from two days prior to injury and five days after, sacrifice day 15",effective
same,myointimal proliferation of the carotid artery following endothelial injury by air drying,"[4]; 50 µg/kg/day s.c. in two divided doses, from two days prior to injury and five days after, sacrifice day 15",effective
same,myointimal proliferation,"[4]; 50 µg/kg/day, started 30 min prior to the arterial injury and for a further five days",significantly (p<0.01) inhibited
same,myointimal proliferation of the carotid artery following endothelial injury by air drying,"[4]; overall statement for the doses used (20 and 50 µg/kg/day s.c.), started two days prior to injury",inhibited significantly (P<0.01)
